The NIST ThermoML archive (doi:10.1021/je800243y)
Numbers after ± are expanded uncertainties.

experiment: molar heat capacity at constant pressure; conditions: 333.15 K; 101.33 kPa; Crystal; Large sample (1 g) DSC

Row | molar heat capacity at constant pressure | Compound
1 | 291.68 ± 5.8 J/K/mol | Cc1cn([C@H]2C[C@H](O)[C@@H](CO)O2)c(=O)[nH]c1=O [thymidine]
2 | 279.66 ± 5.6 J/K/mol | O=c1[nH]c(=O)n([C@H]2C[C@H](O)[C@@H](CO)O2)cc1Br [5-bromo-2'-deoxyuridine]
3 | 342.43 ± 6.8 J/K/mol | O=c1[nH]c(=O)n([C@@H]2O[C@H](CO)[C@@H](O)[C@H]2O)cc1I [2,4-dihdroxy-5-iodo-1-β-D-ribofurnosylpyrimidine]

same assay, conditions: 338.15 K; 101.33 kPa; Crystal; Large sample (1 g) DSC

Row | Compound | molar heat capacity at constant pressure
4 | O=c1ccn([C@H]2C[C@H](O)[C@@H](CO)O2)c(=O)[nH]1 [2'-deoxyuridine] | 285.38 ± 5.7 J/K/mol
5 | O=c1[nH]c(=O)n([C@@H]2O[C@H](CO)[C@@H](O)[C@H]2O)cc1I [2,4-dihdroxy-5-iodo-1-β-D-ribofurnosylpyrimidine] | 343.15 ± 6.9 J/K/mol

Now from value to compound:

Row | molar heat capacity at constant pressure | Compound
6 | 303.48 ± 6.1 J/K/mol | O=c1[nH]c(=O)n([C@H]2C[C@H](O)[C@@H](CO)O2)cc1I [5-iodo-2'-deoxyuridine]
7 | 309.47 ± 6.2 J/K/mol | O=c1[nH]c(=O)n([C@@H]2O[C@H](CO)[C@@H](O)[C@H]2O)cc1Br [5-bromouridine]
8 | 293.81 ± 5.9 J/K/mol | Cc1cn([C@H]2C[C@H](O)[C@@H](CO)O2)c(=O)[nH]c1=O [thymidine]
9 | 282.38 ± 5.7 J/K/mol | O=c1[nH]c(=O)n([C@H]2C[C@H](O)[C@@H](CO)O2)cc1Br [5-bromo-2'-deoxyuridine]

same assay, conditions: 343.15 K; 101.33 kPa; Crystal; Large sample (1 g) DSC

Row | Compound | molar heat capacity at constant pressure
10 | O=c1ccn([C@H]2C[C@H](O)[C@@H](CO)O2)c(=O)[nH]1 [2'-deoxyuridine] | 288.12 ± 5.8 J/K/mol
11 | O=c1[nH]c(=O)n([C@@H]2O[C@H](CO)[C@@H](O)[C@H]2O)cc1I [2,4-dihdroxy-5-iodo-1-β-D-ribofurnosylpyrimidine] | 343.86 ± 6.9 J/K/mol

Now from value to compound:

Row | molar heat capacity at constant pressure | Compound
12 | 305.76 ± 6.1 J/K/mol | O=c1[nH]c(=O)n([C@H]2C[C@H](O)[C@@H](CO)O2)cc1I [5-iodo-2'-deoxyuridine]
13 | 309.94 ± 6.2 J/K/mol | O=c1[nH]c(=O)n([C@@H]2O[C@H](CO)[C@@H](O)[C@H]2O)cc1Br [5-bromouridine]
14 | 295.95 ± 5.9 J/K/mol | Cc1cn([C@H]2C[C@H](O)[C@@H](CO)O2)c(=O)[nH]c1=O [thymidine]
15 | 285.09 ± 5.7 J/K/mol | O=c1[nH]c(=O)n([C@H]2C[C@H](O)[C@@H](CO)O2)cc1Br [5-bromo-2'-deoxyuridine]

same assay, conditions: 348.15 K; 101.33 kPa; Crystal; Large sample (1 g) DSC

Row | Compound | molar heat capacity at constant pressure
16 | O=c1ccn([C@H]2C[C@H](O)[C@@H](CO)O2)c(=O)[nH]1 [2'-deoxyuridine] | 290.86 ± 5.8 J/K/mol
17 | O=c1[nH]c(=O)n([C@@H]2O[C@H](CO)[C@@H](O)[C@H]2O)cc1I [2,4-dihdroxy-5-iodo-1-β-D-ribofurnosylpyrimidine] | 344.58 ± 6.9 J/K/mol

Now from value to compound:

Row | molar heat capacity at constant pressure | Compound
18 | 308.02 ± 6.2 J/K/mol | O=c1[nH]c(=O)n([C@H]2C[C@H](O)[C@@H](CO)O2)cc1I [5-iodo-2'-deoxyuridine]
19 | 310.41 ± 6.2 J/K/mol | O=c1[nH]c(=O)n([C@@H]2O[C@H](CO)[C@@H](O)[C@H]2O)cc1Br [5-bromouridine]
20 | 298.09 ± 6 J/K/mol | Cc1cn([C@H]2C[C@H](O)[C@@H](CO)O2)c(=O)[nH]c1=O [thymidine]
21 | 287.81 ± 5.8 J/K/mol | O=c1[nH]c(=O)n([C@H]2C[C@H](O)[C@@H](CO)O2)cc1Br [5-bromo-2'-deoxyuridine]

same assay, conditions: 353.15 K; 101.33 kPa; Crystal; Large sample (1 g) DSC

Row | Compound | molar heat capacity at constant pressure
22 | O=c1ccn([C@H]2C[C@H](O)[C@@H](CO)O2)c(=O)[nH]1 [2'-deoxyuridine] | 293.6 ± 5.9 J/K/mol
23 | O=c1[nH]c(=O)n([C@@H]2O[C@H](CO)[C@@H](O)[C@H]2O)cc1I [2,4-dihdroxy-5-iodo-1-β-D-ribofurnosylpyrimidine] | 345.29 ± 6.9 J/K/mol

Results, then the compound that gave them:

Row | molar heat capacity at constant pressure | Compound
24 | 310.3 ± 6.2 J/K/mol | O=c1[nH]c(=O)n([C@H]2C[C@H](O)[C@@H](CO)O2)cc1I [5-iodo-2'-deoxyuridine]
25 | 310.88 ± 6.2 J/K/mol | O=c1[nH]c(=O)n([C@@H]2O[C@H](CO)[C@@H](O)[C@H]2O)cc1Br [5-bromouridine]
26 | 300.23 ± 6 J/K/mol | Cc1cn([C@H]2C[C@H](O)[C@@H](CO)O2)c(=O)[nH]c1=O [thymidine]
27 | 290.52 ± 5.8 J/K/mol | O=c1[nH]c(=O)n([C@H]2C[C@H](O)[C@@H](CO)O2)cc1Br [5-bromo-2'-deoxyuridine]

same assay, conditions: 358.15 K; 101.33 kPa; Crystal; Large sample (1 g) DSC

Row | Compound | molar heat capacity at constant pressure
28 | O=c1ccn([C@H]2C[C@H](O)[C@@H](CO)O2)c(=O)[nH]1 [2'-deoxyuridine] | 296.36 ± 5.9 J/K/mol
29 | O=c1[nH]c(=O)n([C@@H]2O[C@H](CO)[C@@H](O)[C@H]2O)cc1I [2,4-dihdroxy-5-iodo-1-β-D-ribofurnosylpyrimidine] | 346.01 ± 6.9 J/K/mol

The next lines start with the values.

Row | molar heat capacity at constant pressure | Compound
30 | 312.55 ± 6.2 J/K/mol | O=c1[nH]c(=O)n([C@H]2C[C@H](O)[C@@H](CO)O2)cc1I [5-iodo-2'-deoxyuridine]
31 | 311.35 ± 6.2 J/K/mol | O=c1[nH]c(=O)n([C@@H]2O[C@H](CO)[C@@H](O)[C@H]2O)cc1Br [5-bromouridine]
32 | 302.37 ± 6 J/K/mol | Cc1cn([C@H]2C[C@H](O)[C@@H](CO)O2)c(=O)[nH]c1=O [thymidine]
33 | 293.24 ± 5.9 J/K/mol | O=c1[nH]c(=O)n([C@H]2C[C@H](O)[C@@H](CO)O2)cc1Br [5-bromo-2'-deoxyuridine]

same assay, conditions: 363.15 K; 101.33 kPa; Crystal; Large sample (1 g) DSC

Row | Compound | molar heat capacity at constant pressure
34 | O=c1ccn([C@H]2C[C@H](O)[C@@H](CO)O2)c(=O)[nH]1 [2'-deoxyuridine] | 299.1 ± 6 J/K/mol
35 | O=c1[nH]c(=O)n([C@@H]2O[C@H](CO)[C@@H](O)[C@H]2O)cc1I [2,4-dihdroxy-5-iodo-1-β-D-ribofurnosylpyrimidine] | 346.72 ± 6.9 J/K/mol

The remaining lines, values ahead:

Row | molar heat capacity at constant pressure | Compound
36 | 314.82 ± 6.3 J/K/mol | O=c1[nH]c(=O)n([C@H]2C[C@H](O)[C@@H](CO)O2)cc1I [5-iodo-2'-deoxyuridine]
37 | 311.82 ± 6.2 J/K/mol | O=c1[nH]c(=O)n([C@@H]2O[C@H](CO)[C@@H](O)[C@H]2O)cc1Br [5-bromouridine]
38 | 304.51 ± 6.1 J/K/mol | Cc1cn([C@H]2C[C@H](O)[C@@H](CO)O2)c(=O)[nH]c1=O [thymidine]
39 | 295.95 ± 5.9 J/K/mol | O=c1[nH]c(=O)n([C@H]2C[C@H](O)[C@@H](CO)O2)cc1Br [5-bromo-2'-deoxyuridine]

same assay, conditions: 368.15 K; 101.33 kPa; Crystal; Large sample (1 g) DSC

Row | Compound | molar heat capacity at constant pressure
40 | O=c1ccn([C@H]2C[C@H](O)[C@@H](CO)O2)c(=O)[nH]1 [2'-deoxyuridine] | 301.84 ± 6 J/K/mol
41 | O=c1[nH]c(=O)n([C@@H]2O[C@H](CO)[C@@H](O)[C@H]2O)cc1I [2,4-dihdroxy-5-iodo-1-β-D-ribofurnosylpyrimidine] | 347.44 ± 7 J/K/mol

Continued, values first:

Row | molar heat capacity at constant pressure | Compound
42 | 317.09 ± 6.3 J/K/mol | O=c1[nH]c(=O)n([C@H]2C[C@H](O)[C@@H](CO)O2)cc1I [5-iodo-2'-deoxyuridine]
43 | 312.29 ± 6.2 J/K/mol | O=c1[nH]c(=O)n([C@@H]2O[C@H](CO)[C@@H](O)[C@H]2O)cc1Br [5-bromouridine]
44 | 306.65 ± 6.1 J/K/mol | Cc1cn([C@H]2C[C@H](O)[C@@H](CO)O2)c(=O)[nH]c1=O [thymidine]
45 | 298.66 ± 6 J/K/mol | O=c1[nH]c(=O)n([C@H]2C[C@H](O)[C@@H](CO)O2)cc1Br [5-bromo-2'-deoxyuridine]
